Reference: patent publication US20220162191A1, “SMALL MOLECULE MODULATORS OF IL-17” (LEO PHARMA A/S, priority 2019, published 2022)

molecular target: T1, human IL-17AA (Homo sapiens, UniProt Q16552); test: IL-8 release assay in human epithelial keratinocytes adult (HEKa); assay type: cell-based; conditions: 3 ng/ml human IL-17AA + 10 ng/ml human TNFalpha, 68-72 h, IL-8 by HTRF, read-out: Rel EC50 L-8 release assay
T1 construct: host or cells: HEK (human embryonic kidney) cells
T1 sequence (Q16552 24-155) 1: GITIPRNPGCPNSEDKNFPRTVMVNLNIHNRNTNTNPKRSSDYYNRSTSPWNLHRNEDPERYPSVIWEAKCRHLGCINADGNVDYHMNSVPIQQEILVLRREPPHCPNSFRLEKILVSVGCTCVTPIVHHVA
T1 sequence (Q16552 24-155) 2: T1 sequence (Q16552 24-155) 1
Method in brief: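 Adult human keratinocytes in Epilife with HKGS minus hydrocortisone, treated with compound then stimulated with final 3 ng/ml HEK-derived human IL-17AA plus 10 ng/ml TNF-alpha for 68–72 h at 37 °C; TNF-alpha alone defines 100% inhibition. Secreted IL-8 by HTRF; relative IC50 and Emax from four-parameter fits.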

SMILES | EC50
Cc1cc(-c2ccc(Cl)c(CC(NC(=O)c3ccnn3C)C(=O)Nc3ccc(-c4nncn4C)cc3)c2)ccc1C#N (centres unmarked) [Example 309, N-[1-[[2-chloro-5-(4-cyano-3-methyl-phenyl)phenyl]methyl]-2-[4-(4-methyl-1,2,4-triazol-3-yl)anilino]-2-oxo-ethyl]-2-methyl-pyrazole-3-carboxamide] | > 1000 nM
Cc1n[nH]c(C)c1-c1ccc(NC(=O)[C@H](Cc2cc(-c3cccc(CN4C[C@H]5C[C@@H]4CN5)c3)ccc2Cl)NC(=O)C2(F)CC2)cc1 [Example 310, N-[(1S)-1-[[2-chloro-5-[3-[[(1R,4R)-2,5-diazabicyclo[2.2.1]heptan-2-yl]methyl]phenyl]phenyl]methyl]-2-[4-(3,5-dimethyl-1H-pyrazol-4-yl)anilino]-2-oxo-ethyl]-1-fluoro-cyclopropanecarboxamide] | 100 to 1000 nM
Cc1n[nH]c(C)c1-c1ccc(NC(=O)[C@H](Cc2cc(N3CCOCC3)ccc2Cl)NC(=O)c2ccnn2C)cc1 [Example 311, N-[(1S)-1-[(2-chloro-5-morpholino-phenyl)methyl]-2-[4-(3,5-dimethyl-1H-pyrazol-4-yl)anilino]-2-oxo-ethyl]-2-methyl-pyrazole-3-carboxamide] | > 1000 nM
COCCOCCn1cc(-c2cccc(-c3ccc(Cl)c(CC(NC(=O)c4ccnn4C)C(=O)Nc4ccc(-c5c(C)n[nH]c5C)cc4)c3)c2)nn1 (centres unmarked) [Example 312, N-[1-[[2-chloro-5-[3-[1-[2-(2-methoxyethoxy)ethyl]triazol-4-yl]phenyl]phenyl]methyl]-2-[4-(3,5-dimethyl-1H-pyrazol-4-yl)anilino]-2-oxo-ethyl]-2-methyl-pyrazole-3-carboxamide] | 100 to 1000 nM
Cc1n[nH]c(C)c1-c1ccc(NC(=O)[C@H](Cc2cc(-c3ccnc(N4CCCC5(COC5)C4)n3)ccc2Cl)NC(=O)C2(F)CC2)cc1 [Example 319, N-[(1S)-1-[[2-chloro-5-[2-(2-oxa-8-azaspiro[3.5]nonan-8-yl)pyrimidin-4-yl]phenyl]methyl]-2-[4-(3,5-dimethyl-1H-pyrazol-4-yl)anilino]-2-oxo-ethyl]-1-fluoro-cyclopropanecarboxamide] | < 100 nM
Cc1cnn(C)c1-c1ccc(NC(=O)[C@H](Cc2cc(-c3ccc(=O)n(C(C)C)c3)ccc2Cl)NC(=O)c2cnco2)cc1 [Example 321, N-[(1S)-1-[[2-chloro-5-(1-isopropyl-6-oxo-3-pyridyl)phenyl]methyl]-2-[4-(2,4-dimethylpyrazol-3-yl)anilino]-2-oxo-ethyl]oxazole-5-carboxamide] | > 1000 nM
Cc1cnn(C)c1-c1ccc(NC(=O)[C@H](Cc2cc(-c3ccc(=O)n(C(C)C)c3)ccc2Cl)NC(=O)c2cn[nH]c2)cc1 [Example 323, N-[(1S)-1-[[2-chloro-5-(1-isopropyl-6-oxo-3-pyridyl)phenyl]methyl]-2-[4-(2,4-dimethylpyrazol-3-yl)anilino]-2-oxo-ethyl]-1H-pyrazole-4-carboxamide] | 100 to 1000 nM
Cc1cnn(C)c1-c1ccc(NC(=O)[C@H](Cc2cc(-c3ccc(=O)n(C(C)C)c3)ccc2Cl)NC(=O)c2ccno2)cc1 [Example 324, N-[(1S)-1-[[2-chloro-5-(1-isopropyl-6-oxo-3-pyridyl)phenyl]methyl]-2-[4-(2,4-dimethylpyrazol-3-yl)anilino]-2-oxo-ethyl]isoxazole-5-carboxamide] | 100 to 1000 nM
Cc1cnn(C)c1-c1ccc(NC(=O)[C@H](Cc2cc(-c3ccc(=O)n(C(C)C)c3)ccc2Cl)NC(=O)C2CCC2)cc1 [Example 325, N-[(1S)-1-[[2-chloro-5-(1-isopropyl-6-oxo-3-pyridyl)phenyl]methyl]-2-[4-(2,4-dimethylpyrazol-3-yl)anilino]-2-oxo-ethyl]cyclobutanecarboxamide] | > 1000 nM
Cc1cnn(C)c1-c1ccc(NC(=O)[C@H](Cc2cc(-c3ccc(=O)n(C(C)C)c3)ccc2Cl)NC(=O)CCC(C)C)cc1 [Example 327, N-[(1S)-1-[[2-chloro-5-(1-isopropyl-6-oxo-3-pyridyl)phenyl]methyl]-2-[4-(2,4-dimethylpyrazol-3-yl)anilino]-2-oxo-ethyl]-4-methyl-pentanamide] | 100 to 1000 nM
Cc1cnn(C)c1-c1ccc(NC(=O)[C@H](Cc2cc(-c3ccc(=O)n(C(C)C)c3)ccc2Cl)NC(=O)C(C)C)cc1 [Example 328, N-[(1S)-1-[[2-chloro-5-(1-isopropyl-6-oxo-3-pyridyl)phenyl]methyl]-2-[4-(2,4-dimethylpyrazol-3-yl)anilino]-2-oxo-ethyl]-2-methyl-propanamide] | > 1000 nM

More lines, now with the values ahead:

EC50 | SMILES
< 100 nM | COCCOCCn1cc(-c2ccc(-c3ccc(Cl)c(CC(NC(=O)c4ccnn4C)C(=O)Nc4ccc(-c5c(C)n[nH]c5C)cc4)c3)cc2)nn1 (centres unmarked) [Example 313, N-[1-[[2-chloro-5-[4-[1-[2-(2-methoxyethoxy)ethyl]triazol-4-yl]phenyl]phenyl]methyl]-2-[4-(3,5-dimethyl-1H-pyrazol-4-yl)anilino]-2-oxo-ethyl]-2-methyl-pyrazole-3-carboxamide]
< 100 nM | Cc1n[nH]c(C)c1-c1ccc(NC(=O)[C@H](Cc2cc(-c3ccnc(N4CCSCC4)n3)ccc2Cl)NC(=O)C2(F)CC2)cc1 [Example 314, N-[(1S)-1-[[2-chloro-5-(2-thiomorpholinopyrimidin-4-yl)phenyl]methyl]-2-[4-(3,5-dimethyl-1H-pyrazol-4-yl)anilino]-2-oxo-ethyl]-1-fluoro-cyclopropanecarboxamide]
< 100 nM | Cc1n[nH]c(C)c1-c1ccc(NC(=O)[C@H](Cc2cc(-c3ccnc(N4CC[S+]([O-])CC4)n3)ccc2Cl)NC(=O)C2(F)CC2)cc1 [Example 315, N-[(1S)-1-[[2-chloro-5-[2-(1-oxidothiomorpholin-1-ium-4-yl)pyrimidin-4-yl]phenyl]methyl]-2-[4-(3,5-dimethyl-1H-pyrazol-4-yl)anilino]-2-oxo-ethyl]-1-fluoro-cyclopropanecarboxamide]
< 100 nM | Cc1n[nH]c(C)c1-c1ccc(NC(=O)[C@H](Cc2cc(-c3ccnc(N4CCC5(COC5)C4)n3)ccc2Cl)NC(=O)C2(F)CC2)cc1 [Example 316, N-[(1S)-1-[[2-chloro-5-[2-(2-oxa-7-azaspiro[3.4]octan-7-yl)pyrimidin-4-yl]phenyl]methyl]-2-[4-(3,5-dimethyl-1H-pyrazol-4-yl)anilino]-2-oxo-ethyl]-1-fluoro-cyclopropanecarboxamide]
< 100 nM | Cc1n[nH]c(C)c1-c1ccc(NC(=O)[C@H](Cc2cc(-c3ccnc(N4CCC5(CC4)COC5)n3)ccc2Cl)NC(=O)C2(F)CC2)cc1 [Example 317, N-[(1S)-1-[[2-chloro-5-[2-(2-oxa-7-azaspiro[3.5]nonan-7-yl)pyrimidin-4-yl]phenyl]methyl]-2-[4-(3,5-dimethyl-1H-pyrazol-4-yl)anilino]-2-oxo-ethyl]-1-fluoro-cyclopropanecarboxamide]
< 100 nM | Cc1n[nH]c(C)c1-c1ccc(NC(=O)[C@H](Cc2cc(-c3ccnc(N4CC5COCC5C4)n3)ccc2Cl)NC(=O)C2(F)CC2)cc1 (stereo partly drawn) [Example 318, N-[(1S)-1-[[5-[2-(1,3,3a,4,6,6a-hexahydrofuro[3,4-c]pyrrol-5-yl)pyrimidin-4-yl]-2-chloro-phenyl]methyl]-2-[4-(3,5-dimethyl-1H-pyrazol-4-yl)anilino]-2-oxo-ethyl]-1-fluoro-cyclopropanecarboxamide]
